Measurements from ChEMBL document CHEMBL3045679, “Microwave-assisted synthesis and pharmacological studies of novel 5-deazaalloxazine derivatives” (2012).
In brackets after ≈: the same amount, converted by molar mass. Activity calls are given as the source filed them. The rule behind the calls is not given here.

How the values were obtained:
[1] = system: Bacillus cereus; assay: Antibacterial activity against Bacillus cereus NCIM 2155 at 1000 ug/disk after 24 hr by disk diffusion method; type: functional; conditions: NCIM 2155, 24 h, read-out: DIZ
[2] = system: Penicillium chrysogenum; assay: Antifungal activity against Penicillium chrysogenum NCIM 707 at 500 ug/disk after 72 hr by disk diffusion method; type: functional
[3] = system: Aspergillus niger; assay: Antifungal activity against Aspergillus niger NCIM 1196 at 500 ug/disk after 72 hr by disk diffusion method; type: functional
[4] = system: Streptomyces albus; assay: Antibacterial activity against Streptomyces albus NCIM 2178 at 500 ug/disk after 24 hr by disk diffusion method; type: functional, organism-based
[5] = system: Klebsiella aerogenes; assay: Antibacterial activity against Enterobacter aerogenes NCIM 2239 at 500 ug/disk after 24 hr by disk diffusion method; type: functional
[6] = system: Bacillus subtilis; assay: Antibacterial activity against Bacillus subtilis NCIM 2063 at 500 ug/disk after 24 hr by disk diffusion method; type: functional
[7] = system: Klebsiella aerogenes; assay: Antibacterial activity against Enterobacter aerogenes NCIM 2239 after 24 hr by broth dilution assay; type: functional; conditions: NCIM 2239, 24 h
[8] = system: Aspergillus niger; assay: Antifungal activity against Aspergillus niger NCIM 1196 after 72 hr by broth dilution assay; type: functional; conditions: NCIM 1196, 72 h
[9] = system: Bacillus cereus; assay: Antibacterial activity against Bacillus cereus NCIM 2155 at 500 ug/disk after 24 hr by disk diffusion method; type: functional; conditions: NCIM 2155, 24 h, read-out: DIZ
[10] = system: Rhodotorula mucilaginosa; assay: Antifungal activity against Rhodotorula mucilaginosa NCIM 3174 at 500 ug/disk after 72 hr by disk diffusion method; type: functional
[11] = system: Lipomyces lipofer; assay: Antifungal activity against Lipomyces lipofer NCIM 3252 after 72 hr by broth dilution assay; type: functional; conditions: NCIM 3252, 72 h
[12] = system: Bacillus cereus; assay: Antibacterial activity against Bacillus cereus NCIM 2155 after 24 hr by broth dilution assay; type: functional; conditions: NCIM 2155, 24 h
[13] = system: Lipomyces lipofer; assay: Antifungal activity against Lipomyces lipofer NCIM 3252 at 1000 ug/disk after 72 hr by disk diffusion method; type: functional; conditions: NCIM 3252, 72 h, read-out: DIZ
[14] = system: Pseudomonas aeruginosa; assay: Antibacterial activity against Pseudomonas aeruginosa NCIM 2200 after 24 hr by broth dilution assay; type: functional; conditions: NCIM 2200, 24 h
[15] = system: Klebsiella aerogenes; assay: Antibacterial activity against Enterobacter aerogenes NCIM 2239 at 1000 ug/disk after 24 hr by disk diffusion method; type: functional; conditions: NCIM 2239, 24 h, read-out: DIZ
[16] = system: Escherichia coli; assay: Antibacterial activity against Escherichia coli NCIM 2065 at 500 ug/disk after 24 hr by disk diffusion method; type: functional; conditions: NCIM 2065, 24 h, read-out: DIZ
[17] = system: Aspergillus flavus; assay: Antifungal activity against Aspergillus flavus NCIM 535 at 500 ug/disk after 72 hr by disk diffusion method; type: functional
[18] = system: Aspergillus flavus; assay: Antifungal activity against Aspergillus flavus NCIM 535 after 72 hr by broth dilution assay; type: functional; conditions: NCIM 535, 72 h
[19] = system: Pseudomonas aeruginosa; assay: Antibacterial activity against Pseudomonas aeruginosa NCIM 2200 at 500 ug/disk after 24 hr by disk diffusion method; type: functional; conditions: NCIM 2200, 24 h, read-out: DIZ
[20] = system: Pseudomonas aeruginosa; assay: Antibacterial activity against Pseudomonas aeruginosa NCIM 2200 at 1000 ug/disk after 24 hr by disk diffusion method; type: functional; conditions: NCIM 2200, 24 h, read-out: DIZ
[21] = system: Aspergillus flavus; assay: Antifungal activity against Aspergillus flavus NCIM 535 at 1000 ug/disk after 72 hr by disk diffusion method; type: functional; conditions: NCIM 535, 72 h, read-out: DIZ
[22] = system: Lipomyces lipofer; assay: Antifungal activity against Lipomyces lipofer NCIM 3252 at 500 ug/disk after 72 hr by disk diffusion method; type: functional; conditions: NCIM 3252, 72 h, read-out: DIZ
[23] = system: Bacillus subtilis; assay: Antibacterial activity against Bacillus subtilis NCIM 2063 at 1000 ug/disk after 24 hr by disk diffusion method; type: functional; conditions: NCIM 2063, 24 h, read-out: DIZ
[24] = system: Penicillium chrysogenum; assay: Antifungal activity against Penicillium chrysogenum NCIM 707 at 1000 ug/disk after 72 hr by disk diffusion method; type: functional; conditions: NCIM 707, 72 h, read-out: DIZ
[25] = system: Rhodotorula mucilaginosa; assay: Antifungal activity against Rhodotorula mucilaginosa NCIM 3174 at 1000 ug/disk after 72 hr by disk diffusion method; type: functional; conditions: NCIM 3174, 72 h, read-out: DIZ
[26] = system: Bacillus subtilis; assay: Antibacterial activity against Bacillus subtilis NCIM 2063 after 24 hr by broth dilution assay; type: functional; conditions: NCIM 2063, 24 h
[27] = system: Streptomyces albus; assay: Antibacterial activity against Streptomyces albus NCIM 2178 at 1000 ug/disk after 24 hr by disk diffusion method; type: functional
[28] = system: Escherichia coli; assay: Antibacterial activity against Escherichia coli NCIM 2065 at 1000 ug/disk after 24 hr by disk diffusion method; type: functional; conditions: NCIM 2065, 24 h, read-out: DIZ
[29] = system: Candida albicans; assay: Antifungal activity against Candida albicans NCIM 3471 at 1000 ug/disk after 72 hr by disk diffusion method; type: functional
[30] = system: Escherichia coli; assay: Antibacterial activity against Escherichia coli NCIM 2065 after 24 hr by broth dilution assay; type: functional; conditions: NCIM 2065, 24 h
[31] = system: Aspergillus niger; assay: Antifungal activity against Aspergillus niger NCIM 1196 at 1000 ug/disk after 72 hr by disk diffusion method; type: functional
[32] = system: Candida albicans; assay: Antifungal activity against Candida albicans NCIM 3471 at 500 ug/disk after 72 hr by disk diffusion method; type: functional
[33] = system: Rhodotorula mucilaginosa; assay: Antifungal activity against Rhodotorula mucilaginosa NCIM 3174 after 72 hr by broth dilution assay; type: functional; conditions: NCIM 3174, 72 h
[34] = system: Penicillium chrysogenum; assay: Antifungal activity against Penicillium chrysogenum NCIM 707 after 72 hr by broth dilution assay; type: functional; conditions: NCIM 707, 72 h
[35] = system: Candida albicans; assay: Antifungal activity against Candida albicans NCIM 3471 after 72 hr by broth dilution assay; type: functional; conditions: NCIM 3471, 72 h

Structure (SMILES) | zone of inhibition at 1000 µg/disc [1] [mm] | diameter of the inhibition zone (DIZ) [2] | diameter of the inhibition zone (DIZ) [4] | MIC [7] [µg/mL] | zone of inhibition at 500 µg/disc [9] [mm] | diameter of the inhibition zone (DIZ) [10] | MIC [11] [µg/mL] | MIC [12] [µg/mL] | zone of inhibition at 1000 µg/disc [13] [mm] | MIC [14] [µg/mL] | zone of inhibition at 1000 µg/disc [15] [mm] | zone of inhibition at 500 µg/disc [16] [mm] | diameter of the inhibition zone (DIZ) [17] | zone of inhibition at 500 µg/disc [19] [mm] | zone of inhibition at 1000 µg/disc [20] [mm] | zone of inhibition at 1000 µg/disc [21] [mm] | zone of inhibition at 500 µg/disc [22] [mm] | zone of inhibition at 1000 µg/disc [23] [mm] | zone of inhibition at 1000 µg/disc [24] [mm] | zone of inhibition at 1000 µg/disc [25] [mm] | also measured
COc1cccc2cc3c(=O)[nH]c(=S)[nH]c3nc12 | 12 | inactive | inactive | 31.2 (≈ 120 µM) | 9 | inactive | 125 (≈ 482 µM) | 62.5 (≈ 241 µM) | 14 | 7.8 (≈ 30.1 µM) | 12 | 9 | inactive | 10 | 13 | 13 | 11 | 13 | 12 | 9 | zone of inhibition at 500 µg/disc ([3]; NCIM 1196, 72 h, read-out: DIZ): 8 mm; diameter of the inhibition zone (DIZ) [5]: inactive; zone of inhibition at 500 µg/disc ([6]; NCIM 2063, 24 h, read-out: DIZ): 10 mm; MIC [8]: 125 µg/mL (≈ 482 µM); MIC [18]: 125 µg/mL (≈ 482 µM); MIC [26]: 7.8 µg/mL (≈ 30.1 µM); diameter of the inhibition zone (DIZ) [27]: inactive; zone of inhibition at 1000 µg/disc [28]: 11 mm; diameter of the inhibition zone (DIZ) [29]: inactive; MIC [30]: 62.5 µg/mL (≈ 241 µM); zone of inhibition at 1000 µg/disc ([31]; NCIM 1196, 72 h, read-out: DIZ): 10 mm; diameter of the inhibition zone (DIZ) [32]: inactive
COc1ccc2nc3[nH]c(=O)[nH]c(=O)c3cc2c1 | 12 | inactive | inactive | 3.9 (≈ 16 µM) | 9 | inactive | 31.2 (≈ 128 µM) | 31.2 (≈ 128 µM) | 11 | 31.2 (≈ 128 µM) | 13 | 10 | inactive | 9 | 13 | 9 | 9 | 9 | 9 | 10 | diameter of the inhibition zone (DIZ) [3]: inactive; zone of inhibition at 500 µg/disc ([5]; NCIM 2239, 24 h, read-out: DIZ): 10 mm; diameter of the inhibition zone (DIZ) [6]: inactive; MIC [33]: 15.6 µg/mL (≈ 64.1 µM); MIC [34]: 62.5 µg/mL (≈ 257 µM); MIC [26]: 62.5 µg/mL (≈ 257 µM); diameter of the inhibition zone (DIZ) [27]: inactive; zone of inhibition at 1000 µg/disc [28]: 12 mm; zone of inhibition at 1000 µg/disc ([29]; NCIM 3471, 72 h, read-out: DIZ): 10 mm; MIC [30]: 7.8 µg/mL (≈ 32.1 µM); diameter of the inhibition zone (DIZ) [31]: inactive; MIC [35]: 31.2 µg/mL (≈ 128 µM); zone of inhibition at 500 µg/disc ([32]; NCIM 3471, 72 h, read-out: DIZ): 9 mm
